The values below are quoted from earlier work in patent publication US10822301B2, “3-carbon substituted 4-aminocyclopent-1-ene-1-carboxylic acid compounds as inhibitors of gamma-aminobutyric acid (GABA) aminotransferase” (Northwestern University, priority 2018, dated 2020).

Data set [1] has as its system cocaine addiction in humans. The following applies: 9-week double-blind trial.
The test system of a further data set is epilepsy patients. The conditions noted are these: long-term administration, share of epilepsy patients.

As for `C=CC(N)CCC(=O)O` (centres unmarked) [vigabatrin], the patients achieving abstinence entry in data set [1] is on record as “up to 28%”. Moreover, in the data set on epilepsy patients, the “permanent vision loss (damage of the retinal nerve fiber layer)” value was 25-40%.
